Measured values reported in patent US12215354B2, “Differentiation of human embryonic stem cells into single hormonal insulin positive cells” (Janssen Biotech, Inc., priority 2011, dated 2025).

Tested on: human embryonic stem cell line H1
Assay: Real-time PCR gene expression, ascorbic acid at stages 3-5 (Example 11)
Format: cell-based
Conditions: at stages 4-5
Protocol: Cells of the human embryonic stem cell line H1 at various passages (passage 40 to passage 52) were seeded as single cells at a density of 100,000 cells/cm^2 on MATRIGEL™ (1:30 dilution) coated dishes in mTesr™1 media and 10 μM of Y27632. Forty eight hours post seeding, cultures were differentiated into pancreatic endocrine lineage as follows: • a. Stage 1 (Definitive Endoderm (DE)−3 days): Prior to start of DE, the cultures were washed and incubated with incomplete PBS (no Mg or Ca) for 30 seconds followed by addition of the stage 1 media. Human embryonic stem cells cultured as single cells on MATRIGEL™-coated dishes were treated with MCDB-131 medium supplemented with 0.1% fatty acid-free BSA, 0.0012 g/ml sodium bicarbonate, 1× GLUTAMAX™, 5 mM D-Glucose, 100 ng/ml GDF8, and 1 μM MCX compound (GSK3B inhibitor) for one day. Cells were then treated with MCDB-131 medium supplemented with 0.1% fatty acid-free BSA, 0.0012 g/ml sodium bicarbonate, 1× GLUTAMAX™, 5 mM glucose, 100 ng/ml GDF8, and 100 nM MCX compound for day two, followed by an additional day in MCDB-131 medium supplemented with 0.1% fatty acid-free BSA, 0.0012 g/ml sodium bicarbonate, 1× GLUTAMAX™, 5 mM Glucose, and 100 ng/ml GDF8. • b. Stage 2 (Primitive gut tube−2 days): Stage 1 cells were treated with MCDB-131 medium supplemented with 0.1% fatty acid-free BSA, 0.0012 g/ml sodium bicarbonate, 1× GLUTAMAX™, 5 mM D-Glucose, and 25 ng/ml FGF7 for two days. • c. Stage 3 (Foregut−2 days): Stage 2 cells were treated with MCDB-131 medium supplemented with 1:200 dilution of ITS-X, 2.5 mM Glucose, 1× GLUTAMAX™, 0.0015 g/ml sodium bicarbonate, 2% fatty acid-free BSA, 10 ng/ml Activin A, 25 ng/ml FGF7, 0.25 μM SANT-1, 1 μM RA, 200 nM TPB (PKC activator), 100 nM LDN-193189 (BMP receptor inhibitor) for one day. Cells were then treated with MCDB-131 medium supplemented with 1:200 dilution of ITS-X, 2.5 mM Glucose, 1× GLUTAMAX™, 0.0015 g/ml sodium bicarbonate, 2% fatty acid-free BSA, 10 ng/ml Activin A, 25 ng/ml FGF7, 0.25 μM SANT-1, 1 μM RA, 200 nM TPB (PKC activator), 10 nM LDN-193189 for an additional day. […]

[1] = ascorbic acid added at stage 3 or at stages 3 and 4

## O=C1O[C@H]([C@@H](O)CO)C(O)=C1O [ascorbic acid]
0.25 mM ascorbic acid
  expression of pancreatic endoderm markers PDX-1 and NKX6.1: not significantly altered
[1]
  expression of insulin: increasing
  expression of somatostatin and glucagon: significantly decreased
